# Entries after “also recorded” stand apart in the source; their conditions may differ. Like-named read-outs stand apart in the source and are kept apart here.
# Experiments:
# [1] = tested on: P. falciparum; conditions: cited from earlier work
# [2] = tested on: parasites in human RBC culture; assay: Parasite growth (parasitemia) in human RBC culture with ALDH inhibitor; assay type: cell-based
# Protocol: FIG. 8 depicts the effect of ALDH inhibitor, disulfiram, on parasitemia in RBC. Parasitemia were determined 24 and 72 hours after the addition of disulfiram at the indicated concentrations.
# Disulfirm and diadzin are used as deterrents for treatment of alcoholism, and as such, are both safe and effective ALDH2 inhibitors. […] As a negative control, pyrazole, an alcohol dehydrogenase inhibitor, at a concentration as high as 500 μM has no effect on the growth of parasites.
# [3] = expected
# [4] = tested on: P. berghei; conditions: wild type mice; expected
# Excerpt: In this model, infections with P. berghei ANKA and NK65 strains yield highly reproducible peripheral parasitemias and gametocytemias that are infectious to An. stephensi. […] The ALDH2*2 mouse is on a C57/BL6 background, a mouse strain that is the most susceptible among common mouse strains to hepatic infection with P. berghei (Scheller L. F., et al. Susceptibility of different strains of mice to hepatic infection with Plasmodium berghei. Infect Immun. 1994; 62(11):4844-7). […] On the day of infection, mice in each of the experimental groups are infected by bite of An. stephensi (5-10 mosquitoes/mouse).
# During P. berghei infection, liver stages and accompanying pathology are evident by 39 hr post-infection (Scheller L. F., et al. Susceptibility of different strains of mice to hepatic infection with Plasmodium berghei. Infect Immun. 1994; 62(11):4844-7), peripheral parasitemia is evident by 4-5 days post-infection, and gametocytemia rises with peripheral parasitemia to become infectious to An. stephensi. Based on these parameters, mice that are not sacrificed within 39-48 hrs post-infection to assess liver stage parasites and pathology are examined daily for peripheral parasitemia beginning at 3 days post-infection.
# [5] = tested on: P. falciparum; assay: Parasitemia in P. falciparum infected human red blood cells treated with acetaldehyde; assay type: cell-based, Plasmodium falciparum; conditions: acetaldehyde μM range (low levels); Geimsa stain and flow cytometry; preliminary data
# Protocol: Parasitemia counts were determined by Geimsa stain and FACS.
# […] Exp. Res., 22: 1161-1164). […] Further, μM concentrations of 4HNE are also very common under conditions of infection, inflammation or fever (e.g. during the chill-fever cycles of malaria).
# [6] = 2.5 alcoholic drinks (0.5 g/kg body weight), cited from earlier work
# [7] = after drinking alcohol; cited from earlier work
compound,measurement,setting,value
"CCCCCC(O)C=CC=O (stereo not drawn) [4HNE, 4-Hydroxy-2-nonenal]",reduction of growth of P. falciparum relative to controls,[1]; 50-100 μM,50-100%
same,toxicity to malaria parasites in vitro,[1],toxic
c1cn[nH]c1 [pyrazole],effect on the growth of parasites,"[2]; negative control, concentration as high as 500 μM",no effect
CCO [ethanol],difference in blood acetaldehyde level between wild type and ALDH2*2 mutant animals,[3]; 1.5 to 4.0 g/kg acute ethanol administration,at least 5 fold
same,duration of the difference in blood acetaldehyde level,[3]; after single dose of ethanol,4 to 6 h
same,"parasite infection, histopathology, or transmission due to ethanol treatment",[4],no significant differences
CC=O [acetaldehyde],growth of P. falciparum / parasitemia in human RBCs,[5],inhibit growth; also recorded: reduces parasitemia
same,toxicity to malaria parasites in vitro,[1],toxic
same,blood acetaldehyde level,[6]; human ALDH2*2 heterozygotic subjects,60 µM
same,blood acetaldehyde level,[6]; subjects with wild type enzyme,~2 µM
same,acetaldehyde concentration in human saliva,[7],≥ 450 µM
tetraethylthioperoxydicarbonic diamide [disulfiram],IC50,"[2]; human RBC culture, in the absence of alcohol, read-out: inhibition of parasite growth IC50",9.7 µM
